Data published in patent publication US10442759B2, “1-sulfonamido-4-aryloxy compounds, and preparation method and medicinal application thereof” (priority 2016, dated 2019).

Tests used:
[1] = biological target: Keap1-Nrf2 protein-protein interaction (Keap1 Kelch domain protein, FITC-9mer Nrf2 polypeptide probe) (Homo sapiens (Human), UniProt Q14145); assay: Fluorescence polarization-based Keap1-Nrf2 protein-protein interaction inhibition experiment (FP experiment); format: binding; details: for IC50: FP experiment, Keap1 Kelch domain, FITC-9mer Nrf2 probe
Keap1-Nrf2 protein-protein interaction (Keap1 Kelch domain protein, FITC-9mer Nrf2 polypeptide probe), sequence (Q14145 321-609): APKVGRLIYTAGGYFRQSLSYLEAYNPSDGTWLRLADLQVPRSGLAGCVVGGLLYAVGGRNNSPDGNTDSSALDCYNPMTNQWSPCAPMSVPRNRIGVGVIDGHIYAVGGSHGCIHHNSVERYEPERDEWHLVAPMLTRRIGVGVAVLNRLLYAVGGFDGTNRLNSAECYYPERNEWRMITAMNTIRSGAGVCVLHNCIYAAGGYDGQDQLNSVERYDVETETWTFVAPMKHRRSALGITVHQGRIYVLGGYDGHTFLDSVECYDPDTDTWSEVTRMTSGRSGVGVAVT
Procedure: Fluorescence Polarization-Based Keap1-Nrf2 Protein-Protein Interaction Inhibition Experiment (FP Experiment)
The instrument used in the FP experiment was the SpectraMax Multi-Mode Microplate Reader (Molecular Devices), and the excitation and emission wavelengths of the instrument were selected based on the corresponding fluorophore.
Before the test, the system was mixed well and incubated for 30 minutes at room temperature. […] In this study, the fluorescence intensities in horizontal and vertical directions (F∥ and F^⊥) were used to calculate the millipolarization value (mP), so as to reflect the changes of the polarized light.
where Pmax, Pmin, and Pobs represent the polarization value in the well containing Keap1 and the fluorescence probe, the polarization value in the well containing the fluorescence probe, and the polarization value of the well containing the inhibitor, respectively. The IC50 of the compounds was calculated from curve of the inhibition rate against the inhibitor concentration.

ARE (HepG2-ARE-C8 cells) = assay: ARE luciferase reporter assay; format: cell-based; details: for Luciferase reporter activity (fold of induction): HepG2-ARE-C8 cells, 12 hrs
Procedure: ARE Luciferase Reporter Assay
100 μL was added to a 96-well microtiter plate and incubated overnight.
(2) 2 times of the desired concentration of the test compound was formulated in a culture medium, and 100 μL was added respectively to the corresponding wells. tBHQ was used as a positive control and DMSO was used as a negative control. The 96-well microtiter plate added with the compound was incubated for 12 hrs at a constant temperature of 37° C., 5% CO2, and saturated humidity.
(3) The 5× lysis buffer in the Luciferase Assay Kit was formulated into a 1× lysis buffer for future use.
(4) The 96-well microtiter plate was removed, the medium was aspirated from the wells, the cells were washed with 1×PBS buffer, and the PBS buffer was aspirated off after the wash. […] After the lysis, the lysate was stood for 3-5 min, and 20 μL of the lysate supernatant was aspirated into a corresponding 96-well white plate.
(5) The 96-well white plate was positioned in the Thermo Scientific Luminoskan Ascent Chemiluminescence Micropore Reader. 100 μL of a luciferase assay reagent (obtained by uniformly mixing 1 bottle of luciferase assay substrate in the luciferase assay kit and 1 bottle of luciferase detection buffer) was added to each well before the test, and the plate was read within 1 min after the test reagent was added.

2-(4-(2,4,6-trimethyl-N-(2-(hydroxylamino)-2-oxoethylbenzenesulfonamido) naphthalen-1-oxy)-benzeneacetic acid [Compound I-13]
IC50 [1]: 980 nM | Luciferase reporter activity (fold of induction) (ARE (HepG2-ARE-C8 cells); 0.1 μmol/L): 1.07 fold of induction | Luciferase reporter activity (fold of induction) (ARE (HepG2-ARE-C8 cells); 1 μmol/L): 1.16 fold of induction | Luciferase reporter activity (fold of induction) (ARE (HepG2-ARE-C8 cells); 10 μmol/L): 1.21 fold of induction

2-(4-(2,4,6-trimethylbenzenesulfonamido)naphthalen-1-oxy)benzeneacetic acid [Compound I-11]
IC50 [1]: 2430 nM | Luciferase reporter activity (fold of induction) (ARE (HepG2-ARE-C8 cells); 0.1 μmol/L): 1.02 fold of induction | Luciferase reporter activity (fold of induction) (ARE (HepG2-ARE-C8 cells); 1 μmol/L): 1.34 fold of induction | Luciferase reporter activity (fold of induction) (ARE (HepG2-ARE-C8 cells); 10 μmol/L): 1.14 fold of induction

2-(4-(2,4,6-trimethylbenzenesulfonamido)naphthalen-1-yl)oxy)-2-benzeneacetic acid [Compound I-2]
IC50 [1]: 1320 nM | Luciferase reporter activity (fold of induction) (ARE (HepG2-ARE-C8 cells); 0.1 μmol/L): 1.21 fold of induction | Luciferase reporter activity (fold of induction) (ARE (HepG2-ARE-C8 cells); 1 μmol/L): 1.10 fold of induction | Luciferase reporter activity (fold of induction) (ARE (HepG2-ARE-C8 cells); 10 μmol/L): 1.05 fold of induction

3-(4-((N-carboxymethyl)-2,4,6-trimethylbenzenesulfonamido)naphthalen-1-yloxy)-(4-methoxyphenyl)propionic acid [Compound I-20]
IC50 [1]: 830 nM | Luciferase reporter activity (fold of induction) (ARE (HepG2-ARE-C8 cells); 0.1 μmol/L): 1.02 fold of induction | Luciferase reporter activity (fold of induction) (ARE (HepG2-ARE-C8 cells); 1 μmol/L): 1.13 fold of induction | Luciferase reporter activity (fold of induction) (ARE (HepG2-ARE-C8 cells); 10 μmol/L): 1.28 fold of induction

COc1ccc(S(=O)(=O)N(CC(=O)O)c2ccc(Oc3ccccc3CC(=O)O)c3ccccc23)cc1 [Compound I-1]
IC50 [1]: 2280 nM | Luciferase reporter activity (fold of induction) (ARE (HepG2-ARE-C8 cells); 0.1 μmol/L): 0.98 fold of induction | Luciferase reporter activity (fold of induction) (ARE (HepG2-ARE-C8 cells); 1 μmol/L): 1.10 fold of induction | Luciferase reporter activity (fold of induction) (ARE (HepG2-ARE-C8 cells); 10 μmol/L): 1.07 fold of induction

Cc1cc(C)c(S(=O)(=O)N(CC(=O)O)c2ccc(Oc3ccccc3CC(=O)O)c3ccccc23)c(C)c1 [Compound I-3]
IC50 [1]: 580 nM | Luciferase reporter activity (fold of induction) (ARE (HepG2-ARE-C8 cells); 0.1 μmol/L): 0.95 fold of induction | Luciferase reporter activity (fold of induction) (ARE (HepG2-ARE-C8 cells); 1 μmol/L): 1.03 fold of induction | Luciferase reporter activity (fold of induction) (ARE (HepG2-ARE-C8 cells); 10 μmol/L): 1.31 fold of induction

CC(C)(C)c1ccc(S(=O)(=O)N(CC(=O)O)c2ccc(OC(C(=O)O)c3ccccc3)c3ccccc23)cc1 (stereo not shown) [Compound I-4]
IC50 [1]: 980 nM | Luciferase reporter activity (fold of induction) (ARE (HepG2-ARE-C8 cells); 0.1 μmol/L): 1.04 fold of induction | Luciferase reporter activity (fold of induction) (ARE (HepG2-ARE-C8 cells); 1 μmol/L): 1.12 fold of induction | Luciferase reporter activity (fold of induction) (ARE (HepG2-ARE-C8 cells); 10 μmol/L): 1.13 fold of induction

COc1ccc(S(=O)(=O)N(CC(=O)O)c2ccc(Oc3ccccc3CC(=O)O)c3ccccc23)cc1OC [Compound I-5]
IC50 [1]: 2300 nM | Luciferase reporter activity (fold of induction) (ARE (HepG2-ARE-C8 cells); 0.1 μmol/L): 0.92 fold of induction | Luciferase reporter activity (fold of induction) (ARE (HepG2-ARE-C8 cells); 1 μmol/L): 1.05 fold of induction | Luciferase reporter activity (fold of induction) (ARE (HepG2-ARE-C8 cells); 10 μmol/L): 1.10 fold of induction

COc1cc(OC)c(S(=O)(=O)N(CC(=O)O)c2ccc(OC(C(=O)O)c3ccccc3)c3ccccc23)c(OC)c1 (stereo not shown) [Compound I-6]
IC50 [1]: 640 nM | Luciferase reporter activity (fold of induction) (ARE (HepG2-ARE-C8 cells); 0.1 μmol/L): 1.01 fold of induction | Luciferase reporter activity (fold of induction) (ARE (HepG2-ARE-C8 cells); 1 μmol/L): 1.26 fold of induction | Luciferase reporter activity (fold of induction) (ARE (HepG2-ARE-C8 cells); 10 μmol/L): 1.09 fold of induction

CC(=O)Nc1ccc(S(=O)(=O)N(CC(=O)O)c2ccc(Oc3ccccc3CC(=O)O)c3ccccc23)cc1 [Compound I-7]
IC50 [1]: 5230 nM | Luciferase reporter activity (fold of induction) (ARE (HepG2-ARE-C8 cells); 0.1 μmol/L): 0.97 fold of induction | Luciferase reporter activity (fold of induction) (ARE (HepG2-ARE-C8 cells); 1 μmol/L): 1.01 fold of induction | Luciferase reporter activity (fold of induction) (ARE (HepG2-ARE-C8 cells); 10 μmol/L): 1.03 fold of induction

O=C(O)CN(c1ccc(OC(C(=O)O)c2ccccc2)c2ccccc12)S(=O)(=O)c1ccc([N+](=O)[O-])cc1 (stereo not shown) [Compound I-8, 2-(4-(N-(carboxymethyl)-4-nitrobenzenesulfonamido))naphthalen-1-oxy) benzeneacetate]
IC50 [1]: 4790 nM | Luciferase reporter activity (fold of induction) (ARE (HepG2-ARE-C8 cells); 0.1 μmol/L): 1.05 fold of induction | Luciferase reporter activity (fold of induction) (ARE (HepG2-ARE-C8 cells); 1 μmol/L): 1.23 fold of induction | Luciferase reporter activity (fold of induction) (ARE (HepG2-ARE-C8 cells); 10 μmol/L): 1.14 fold of induction

O=C(O)CN(c1ccc(OC(C(=O)O)c2ccccc2)c2ccccc12)S(=O)(=O)c1ccc(F)cc1 (stereo not shown) [Compound I-9]
IC50 [1]: 5160 nM | Luciferase reporter activity (fold of induction) (ARE (HepG2-ARE-C8 cells); 0.1 μmol/L): 1.02 fold of induction | Luciferase reporter activity (fold of induction) (ARE (HepG2-ARE-C8 cells); 1 μmol/L): 1.13 fold of induction | Luciferase reporter activity (fold of induction) (ARE (HepG2-ARE-C8 cells); 10 μmol/L): 1.08 fold of induction

O=C(O)Cc1ccccc1Oc1ccc(N(CC(=O)O)S(=O)(=O)c2ccc(C(F)(F)F)cc2)c2ccccc12 [Compound I-10]
IC50 [1]: 6660 nM | Luciferase reporter activity (fold of induction) (ARE (HepG2-ARE-C8 cells); 0.1 μmol/L): 0.92 fold of induction | Luciferase reporter activity (fold of induction) (ARE (HepG2-ARE-C8 cells); 1 μmol/L): 0.95 fold of induction | Luciferase reporter activity (fold of induction) (ARE (HepG2-ARE-C8 cells); 10 μmol/L): 1.10 fold of induction

Cc1cc(C)c(S(=O)(=O)N(Cc2nn[nH]n2)c2ccc(Oc3ccccc3CC(=O)O)c3ccccc23)c(C)c1 [Compound I-12, 2-(4-((N-(2H-tetrazol-5-yl)methyl)-2,4,6-trimethylbenzenesulfonamido)naphthalen-1-oxy)benzeneacetic acid]
IC50 [1]: 830 nM | Luciferase reporter activity (fold of induction) (ARE (HepG2-ARE-C8 cells); 0.1 μmol/L): 1.05 fold of induction | Luciferase reporter activity (fold of induction) (ARE (HepG2-ARE-C8 cells); 1 μmol/L): 1.19 fold of induction | Luciferase reporter activity (fold of induction) (ARE (HepG2-ARE-C8 cells); 10 μmol/L): 1.36 fold of induction

CCOc1ccc(C(Oc2ccc(N(CC(=O)O)S(=O)(=O)c3c(C)cc(C)cc3C)c3ccccc23)C(=O)O)cc1 (stereo not shown) [Compound I-15]
FP activity compared with the positive control Nrf2 9mer polypeptide [1]: better than the positive control | IC50 [1]: 84 nM | Luciferase reporter activity (fold of induction) (ARE (HepG2-ARE-C8 cells); 0.1 μmol/L): 1.33 fold of induction | Luciferase reporter activity (fold of induction) (ARE (HepG2-ARE-C8 cells); 1 μmol/L): 2.05 fold of induction | fold of induction compared with the positive control tBHQ (ARE (HepG2-ARE-C8 cells); 10 μM): significantly higher than that of the positive control tBHQ | Luciferase reporter activity (fold of induction) (ARE (HepG2-ARE-C8 cells); 10 μmol/L): 3.92 fold of induction

CC(=O)Nc1ccc(C(Oc2ccc(N(CC(=O)O)S(=O)(=O)c3c(C)cc(C)cc3C)c3ccccc23)C(=O)O)cc1 (stereo not shown) [Compound I-16]
FP activity compared with the positive control Nrf2 9mer polypeptide [1]: better than the positive control | IC50 [1]: 90 nM | Luciferase reporter activity (fold of induction) (ARE (HepG2-ARE-C8 cells); 0.1 μmol/L): 1.21 fold of induction | Luciferase reporter activity (fold of induction) (ARE (HepG2-ARE-C8 cells); 1 μmol/L): 1.98 fold of induction | Luciferase reporter activity (fold of induction) (ARE (HepG2-ARE-C8 cells); 10 μmol/L): 3.23 fold of induction

COc1cc(OC)c(S(=O)(=O)N(CC(=O)O)c2ccc(OC(C(=O)O)c3ccc(OC(C)C)cc3)c3ccccc23)c(OC)c1 (stereo not shown) [Compound I-17]
IC50 [1]: 320 nM | Luciferase reporter activity (fold of induction) (ARE (HepG2-ARE-C8 cells); 0.1 μmol/L): 1.39 fold of induction | Luciferase reporter activity (fold of induction) (ARE (HepG2-ARE-C8 cells); 1 μmol/L): 1.39 fold of induction | Luciferase reporter activity (fold of induction) (ARE (HepG2-ARE-C8 cells); 10 μmol/L): 2.07 fold of induction

COc1cc(OC)c(S(=O)(=O)N(CC(=O)O)c2ccc(OC(C(=O)O)c3ccc(F)cc3)c3ccccc23)c(OC)c1 (stereo not shown) [Compound I-18]
IC50 [1]: 310 nM | Luciferase reporter activity (fold of induction) (ARE (HepG2-ARE-C8 cells); 0.1 μmol/L): 1.03 fold of induction | Luciferase reporter activity (fold of induction) (ARE (HepG2-ARE-C8 cells); 1 μmol/L): 1.42 fold of induction | Luciferase reporter activity (fold of induction) (ARE (HepG2-ARE-C8 cells); 10 μmol/L): 1.57 fold of induction

COc1ccc(C(Oc2ccc(N(Cc3nn[nH]n3)S(=O)(=O)c3c(C)cc(C)cc3C)c3ccccc23)C(=O)O)cc1 (stereo not shown) [Compound I-19, 2-(4-((N-(2H-tetrazol-5-yl)methyl)-2,4,6-trimethylbenzenesulfonamido)naphthalen-1-oxy)-(4-methoxyphenyl)acetic acid]
IC50 [1]: 140 nM | Luciferase reporter activity (fold of induction) (ARE (HepG2-ARE-C8 cells); 0.1 μmol/L): 0.97 fold of induction | Luciferase reporter activity (fold of induction) (ARE (HepG2-ARE-C8 cells); 1 μmol/L): 1.43 fold of induction | Luciferase reporter activity (fold of induction) (ARE (HepG2-ARE-C8 cells); 10 μmol/L): 2.58 fold of induction

CC(C)(C)c1cc(O)ccc1O [tBHQ, t-butylhydroquinone, reference compound]
Luciferase reporter activity (fold of induction) (ARE (HepG2-ARE-C8 cells); 0.1 μmol/L): 1.46 fold of induction | Luciferase reporter activity (fold of induction) (ARE (HepG2-ARE-C8 cells); 1 μmol/L): 1.38 fold of induction | Luciferase reporter activity (fold of induction) (ARE (HepG2-ARE-C8 cells); 10 μmol/L): 3.61 fold of induction
